pIC50: −log10 of the molar value.
Tested on: VA-ES-BJ tumor spheroid viability
Test: Anticancer human tumor VA-ES-BJ cell line growth inhibition;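 further: spheroids exposed to compounds for seven days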;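 on viability, T/C: percent of DMSO vehicle control viability so 100% = untreated growth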
Details: spheroids with HUVEC and MSC; for pIC50: curve of first compound; for viability, T/C: stronger effect = lower value
Method in brief: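 Single agents and combinations were tested on spheroids built from tumor cells plus HUVEC and hMSC, at half-log dilutions starting at or near clinical Cmax, else 10 microM; final DMSO 0.25% (v/v).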

[1] = second compound 30 pM, first compound 0.0316 µM
[2] = second compound 30 pM, first compound 0.1 µM
[3] = second compound 30 pM, first compound 0.316 µM
[4] = second compound 30 pM, first compound 1 µM
[5] = second compound 30 pM, first compound 3.16 µM
[6] = second compound 30 pM, first compound 10 µM
[7] = second compound 94.9 pM, first compound 0.0316 µM
[8] = second compound 94.9 pM, first compound 0.1 µM
[9] = second compound 94.9 pM, first compound 0.316 µM
[10] = second compound 94.9 pM, first compound 1 µM
[11] = second compound 94.9 pM, first compound 3.16 µM
[12] = second compound 94.9 pM, first compound 10 µM
[13] = second compound 0.0003 µM, first compound 0.0316 µM
[14] = second compound 0.0003 µM, first compound 0.1 µM
[15] = second compound 0.0003 µM, first compound 0.316 µM
[16] = second compound 0.0003 µM, first compound 1 µM
[17] = second compound 0.0003 µM, first compound 3.16 µM
[18] = second compound 0.0003 µM, first compound 10 µM
[19] = second compound 0.000949 µM, first compound 0.0316 µM
[20] = second compound 0.000949 µM, first compound 0.1 µM
[21] = second compound 0.000949 µM, first compound 0.316 µM
[22] = second compound 0.000949 µM, first compound 1 µM
[23] = second compound 0.000949 µM, first compound 3.16 µM
[24] = second compound 0.000949 µM, first compound 10 µM
[25] = second compound 0.003 µM, first compound 0.0316 µM
[26] = second compound 0.003 µM, first compound 0.1 µM
[27] = second compound 0.003 µM, first compound 0.316 µM
[28] = second compound 0.003 µM, first compound 1 µM
[29] = second compound 0.003 µM, first compound 3.16 µM
[30] = second compound 0.003 µM, first compound 10 µM

SMILES	pIC50 (second compound 30 pM)	pIC50 (second compound 94.9 pM)	pIC50 (second compound 0.0003 µM)	pIC50 (second compound 0.000949 µM)	pIC50 (second compound 0.003 µM)	viability, T/C [1] [%]	viability, T/C [2] [%]	viability, T/C [3] [%]	viability, T/C [4] [%]	viability, T/C [5] [%]	viability, T/C [6] [%]	viability, T/C [7] [%]	viability, T/C [8] [%]	viability, T/C [9] [%]	viability, T/C [10] [%]	viability, T/C [11] [%]	viability, T/C [12] [%]	viability, T/C [13] [%]	viability, T/C [14] [%]	viability, T/C [15] [%]	also measured
CC(C)n1c(=O)n(C)c2cnc3cc(F)c(-c4ccc(OCCCN5CCCCC5)nc4)cc3c21 + COc1cc2c(cc1O)CCNC21CSC2c3c(OC(C)=O)c(C)c4c(c3C(COC1=O)N1C(O)C3Cc5cc(C)c(OC)c(O)c5C(C21)N3C)OCO4	5.23	> 7.50	> 7.50	> 7.50	> 7.50	76.2	76.6	75.2	81	79.1	26	50.3	45.4	46.6	54.1	47.8	28.6	25.9	25.1	30.5	viability, T/C [16]: 31.5%; viability, T/C [17]: 19.7%; viability, T/C [18]: 13.2%; viability, T/C [19]: 1.74%; viability, T/C [20]: 1.58%; viability, T/C [21]: 1.8%; viability, T/C [22]: 1.79%; viability, T/C [23]: 1.02%; viability, T/C [24]: 1.02%; viability, T/C [25]: 1.5%; viability, T/C [26]: 1.42%; viability, T/C [27]: 1.59%; viability, T/C [28]: 0.72%; viability, T/C [29]: 0.45%; viability, T/C [30]: 0.56%
CC1COCCN1c1cc(-c2ccnn2C)c2ccnc(-c3ccn[nH]3)c2n1 (stereo not given) + COc1cc2c(cc1O)CCNC21CSC2c3c(OC(C)=O)c(C)c4c(c3C(COC1=O)N1C(O)C3Cc5cc(C)c(OC)c(O)c5C(C21)N3C)OCO4	> 7.50	> 7.50	> 7.50	> 7.50	> 7.50	38	19.5	8.68	5.69	4.98	4.49	26	21.3	8.87	4.99	5.01	4.7	16.9	12	8.21	viability, T/C [16]: 5.23%; viability, T/C [17]: 5.32%; viability, T/C [18]: 5.04%; viability, T/C [19]: 2.61%; viability, T/C [20]: 2.73%; viability, T/C [21]: 2.01%; viability, T/C [22]: 1.53%; viability, T/C [23]: 0.5%; viability, T/C [24]: 0.13%; viability, T/C [25]: 1.26%; viability, T/C [26]: 1.04%; viability, T/C [27]: 0.77%; viability, T/C [28]: 1%; viability, T/C [29]: 0.35%; viability, T/C [30]: 0.56%
COc1cc(C)[nH]c(=O)c1CN1CCc2c(Cl)cc(C(OC)C3COC3)c(Cl)c2C1=O (stereo not given) + COc1cc2c(cc1O)CCNC21CSC2c3c(OC(C)=O)c(C)c4c(c3C(COC1=O)N1C(O)C3Cc5cc(C)c(OC)c(O)c5C(C21)N3C)OCO4	6.03	6.01	> 7.50	> 7.50	> 7.50	75.7	71.1	58.6	49.4	45.2	40.9	66.9	68.6	59.3	49	43.1	36.8	38.5	36.2	33.1	viability, T/C [16]: 36.7%; viability, T/C [17]: 27.2%; viability, T/C [18]: 29.4%; viability, T/C [19]: 2.44%; viability, T/C [20]: 2.53%; viability, T/C [21]: 2.69%; viability, T/C [22]: 2.75%; viability, T/C [23]: 2.25%; viability, T/C [24]: 1.84%; viability, T/C [25]: 1.25%; viability, T/C [26]: 1.11%; viability, T/C [27]: 1.37%; viability, T/C [28]: 1.01%; viability, T/C [29]: 1.1%; viability, T/C [30]: 2%

Source: PubChem BioAssay AID1845217 (Molecular Pharmacology Branch, DTP, NCI, 2023)
